Holding throughout (type): in vivo, human
One data set deals with arterial pressure. As to the kind of experiment: Arterial pressure monitoring in hypertension patients. The settings on record: monitored every other day. The procedure: (§1) Selected hypertension patients are divided into two groups. The reference group includes 48 patients and the experimental group includes 56 patients. Each group consists of 60% of females, the rest being males. All the patients in the same group differ in age by not more than 1 year. The patients from the experimental group are treated with a hypotensive medication belonging to calcium current blocking agents—Corinfar, (see […], lines from 1 to 3), while those from the reference group are treated with a medication that blocks angiotensin-transforming enzyme (ATE) Prestarium (see FIG. 3, lines from 4 to 6). The period from the beginning of the relapse till the inclusion of the patient into the experiment is chosen to be 2 days. The phase of the disease is selected to be hypertension of medium exacerbation. The prevailing disease localization is its cerebral variant, in other words, the variant characterized by prevailing damage of cerebral vessels. The initial level of the homeostasis characteristics is set by the characteristic of electrolytic homeostasis, i.e. the sodium level, and is equal to 140 mmol/l for both groups. The patients' arterial pressure was monitored every other day, which corresponded to the period of time that is characterized by a significant decrease in arterial pressure under the effect of ATE blocking agent. […]

The nature of data set [1]: Electrolytic homeostasis (sodium level) in treated hypertension patients. The settings on record: initial level 140 mmol/l. On the procedure:
as §1

Data set [2] in a line: Homeostasis (lipid metabolism) indicators in treated ulcer patients. On the procedure: As a result, each group consists of patients of the same sex or features the same proportion of males and females who differ in age by not more than one year. […] Thus, patients with the stomach ulcer are ranked by the ulcerous defect localization with the accuracy of 1/9th of the stomach sections: cardia, subcardia, upper, middle and lower thirds of the stomach body, angle, anthral and prepyloric sections, pylorus. The initial surface area of the ulcerous defect is measured. Then the current stage (phase) of the disease: acute stage (the stage of ulcer forming), stationary stage or “plateau” and the stage of reparation proper (see FIG. 4) is determined for each patient on the basis of clinical, laboratory and instrumental indications. These phases characterize the period of time that passed since the beginning of relapse (exacerbation or start) of the disease till the patient was included into the clinical experiment. The method in question uses homeostasis indications, particularly those related to lipid metabolism, for the evaluation of the efficiency of the therapeutic action. Based on the above principle, the patients are divided into subgroups according to the following classification: • cholesterol (CS); • high density lipoproteins (HDLP); • low density lipoproteins (LDLP); • very low density lipoproteins (VLDLP); • triglycerides (TG); • atherogenicity factor (AF).
The quantitative number of patients in groups must provide the statistical reliability of the results. In the given example the group treated with a reference medical preparation consisted of 73 patients, while the group treated with the medical preparation that had to be evaluated consisted of 81 patients. The reference group was treated with a medication belonging to proton pump blocking agent (for example, Zerocid), while the experimental group was treated with a medication belonging to antacids (for example, Maalox). If the studied medications are only to be ranked by the efficiency of their action upon the organism rather than compared with each other, placebo can be used as a reference medication. The control time is determined for the selected groups of ulcer patients. The control is performed individually for each ranked experimental group. […]
The initial efficiency criterion was a complete healing of ulcerous defect combined with the dynamics of the change in homeostasis characteristics. The individual temporal norm was represented by a time interval calculated on the basis of individual characteristics of the ulcer healing process that corresponded to the individual characteristics of the homeostasis indications, for instance, to the characteristics of lipid metabolism calculated by the known formulas. […]

The next data set deals with ulcerous defect. As to the kind of experiment: Ulcer healing (cicatrization of ulcerous defect) in ulcer patients. The settings on record: compared with the other group. On the procedure: As a result, each group consists of patients of the same sex or features the same proportion of males and females who differ in age by not more than one year. […] Thus, patients with the stomach ulcer are ranked by the ulcerous defect localization with the accuracy of 1/9th of the stomach sections: cardia, subcardia, upper, middle and lower thirds of the stomach body, angle, anthral and prepyloric sections, pylorus. The initial surface area of the ulcerous defect is measured. Then the current stage (phase) of the disease: acute stage (the stage of ulcer forming), stationary stage or “plateau” and the stage of reparation proper (see FIG. 4) is determined for each patient on the basis of clinical, laboratory and instrumental indications. These phases characterize the period of time that passed since the beginning of relapse (exacerbation or start) of the disease till the patient was included into the clinical experiment. […]
The quantitative number of patients in groups must provide the statistical reliability of the results. In the given example the group treated with a reference medical preparation consisted of 73 patients, while the group treated with the medical preparation that had to be evaluated consisted of 81 patients. […] The control time is determined for the selected groups of ulcer patients. […]

In the case of `COC(=O)C1=C(C)NC(C)=C(C(=O)OC)C1c1ccccc1[N+](=O)[O-]` [Corinfar], in the data set with arterial pressure, the “arterial pressure change as a result of treatment” value is given as “decreased by comparable values”. For the same molecule, the “level of sodium after treatment” value in data set [1] was 146000 µM.
The like results for `CCC[C@H](N[C@@H](C)C(=O)N1[C@H](C(=O)O)C[C@@H]2CCCC[C@@H]21)C(=O)OCC` [Prestarium] were, in that order, “decreased by comparable values” and 137000 µM.
Take `COc1ccc2[nH]c([S+]([O-])Cc3ncc(C)c(OC)c3C)nc2c1` (stereo not drawn) [Zerocid]: the “effect upon the atherogenesis and oncogenesis judged from lipid spectrum indications” value in data set [2] is listed as “clearly negative effect”. In data set [2] (FIG. 2a, lines 1-16), the HDLP indicators entry is given as “decreasing”. In addition, in data set [2] (during treatment), the “atherogenicity factor (AF)” value is “increasing” and the “level of triglycerides (TG)” value is on record as “increasing”. In addition, the “cicatrization of ulcerous defects” value with ulcerous defect is listed as “faster”.

The values above are taken from US20050047997A1, “Method for the evaluation of the efficiency of a therapeutic action upon the human organism” (priority 1997, published 2005).
